Laboratory results published in patent US8778643B2, “Methods for increasing lipid levels and producing triacylglycerols in algae” (priority 2012, dated 2014).
Several values for one entry are separate records, joined by “and”; a condition that tells them apart may be missing. Identical values can stand only once. Like-named read-outs stand apart in the source and are kept apart here.

Key:
[1] = system: Nannochloris sp.; test: Microplate assay: growth (absorbance 680 nm) and intracellular lipids (Nile Red fluorescence); format: cell-based
[2] = system: Nannochloropsis oculata
[3] = system: Nannochloropsis oculata; test: Lipid composition of batch culture extracts (fatty acid saturation / PUFA by 1H NMR, MALDI-TOF, GC/MS); format: cell-based
Protocol: The nonpolar algal extracts were harvested from 500 mL cultures when indicated on growth curves, a minimum of 3 days into stationary phase. […] Cells were crushed and nonpolar lipids were extracted by sonication (Fisher Scientific Model 120 Sonic Dismembrator, ThermoFisher, San Jose) for 1 minute in chloroform, followed by chloroform-methanol extractions, washed with PBS butter, and dried under vacuum.^55-60 The crude non-polar algae extracts were then analyzed by ^1H Nuclear Magnetic Resonance (^1H NMR) for verification of TAG presence and examination of the purity of the extract (determination of level of chlorophyll). The extracts were then divided for analysis; one part for transesterification, one part to save as crude extract, and one part for SPE separation and MALDI-TOF analysis of TAGs.
Triacylglycerols can be isolated by solid-phase extraction (SPE) with 500 mg silica SPE cartridges (Silicycle, Quebec). The nonpolar extract is dissolved in 300 μL hexanes, and loaded on the SPE cartridge primed with hexanes. A mixture of 80:20:1 hexanes/diethyl ether/acetic acid was used as mobile phase to elute the TAGs.^61 SPE removes any chlorophyll in this process. Residual polar fraction containing polar lipids and chlorophyll was obtained by elution with acetone. All extracts and TAG fractions were dried under vacuum and stored under argon in amber vials at −20° C. before spectroscopic analysis. After SPE, the purified TAG fraction was reanalyzed with ^1H NMR spectroscopy for TAG characterization.
The TOF was in Reflectron mode with laser intensity from 5500-6500 Volts. Each acquisition consisted of 2500 shots with a focus mass of 900 Da, and a scan range of m/z 400-1100. Multiple acquisition scans were performed at different laser intensities to determine optimal conditions. Samples for the MALDI-TOF were diluted to 5 mg/mL in hexane, and spotted in the fast-evaporation method in a 1:2 ratio with DHB (2,5-dihydroxybenzoic acid) as the matrix. Re-spotting with methanol allowed for the matrix and sample to mix without hexane interactions, and allowed for better crystal formation. All samples on MALDI plate were allowed to dry before MS analysis. Data was normalized to base peak in all cases.
After the initial weight was recorded, the nonpolar extract set aside for transesterification was dissolved in 3.0 mL of 0.6 M sulfuric acid in methanol and stirred vigorously at 60° C. for 45 minutes.
Initial GC/MS temperature was 50° C. and end was 200° C. over at a one hour period for optimal FAME peak separation.
Peak assignment of fatty acids and their derivatives are based on NMR spectroscopic studies of previously reported algal lipid extracts^9 and comparison to standards such as olive oil (ACROS) and fatty acid mixtures.
We developed a quick and robust method to screen if the screened compound effect fatty acid saturation levels using ^1H NMR spectroscopy. The amount of saturated fatty acids (SFA), monounsaturated fatty acids (MUFAs), and polyunsaturated fatty acids (PUFAs) was determined using peak area ratios.
Calculated based on ^1H NMR integral ratios for the proton signals for the methyl group of PUFA components vs. the methyl groups of monounsaturated and saturated components.

[4] = system: Phaeodactylum tricornutum; test: Microplate assay: growth (absorbance 680 nm) and intracellular lipids (Nile Red fluorescence); format: cell-based
Protocol: Stock cultures were aerated by stirring with bubbling air (homemade manifold with Petco air pump, 2-4% CO2) or by orbital shaking (Thermo Scientific MAXQ 2000) at a constant speed of 150 rpm at 22±3° C. with a 16:8 hour light/dark cycle. Stocks were kept at stationary phase for use. Algae were prepared as dictated by culture center.
Compounds were selected based on reported biological activity in non-microalgae organisms. To ensure that compounds retained their quality, they were stored under advised conditions after purchasing from the manufacturer. Solutions of all assay compounds were prepared as 10 mM stock solutions by dissolving in DMSO in 2-dram amber vials and then stored in darkness −20° C. 96-well PCR plates were used to create a stock plate layout that was then transferred to the algae microplates. A plate map was used to distribute each compound to a well based on molecule name, collection number, and CAS number. For 20 μM and 200 nM assay plates, 10 mM compound stock in DMSO was diluted into plate maps of 5 mM and 50 μM assay stocks, respectively.
All materials for assay experiments were autoclaved before each use to maintain axenic algae cultures. Algae species were checked for homogeneity using a TS-100 light microscope (Nikon, Japan). […] Diluted stock solutions were made immediately prior to use for consistency and optimal plate growth. Cell density was measured on a Thermo Scientific Genesys 10S Vis Spectrophotometer (ThermoFisher, San Jose), using a 1 mL cuvette at 680 nm.
Plates were originally run in triplicate, before replicates were increased to quadruplicate, along with a separate control plate to compare growth. Due to extensive evaporation in exterior wells over time, our unique algae plate layout was designed to use the 60 interior wells out of 96 wells for the experiment. The 36 outer wells were filled with Millipore water and media to prevent evaporation and edge effects in the inner algae wells, as well as serve as blanks. The 60 wells with algae contained a total volume of 251 μL (100 μL of media+DMSO compound stock +150 μL dilute algae stock). For 20 μM and 200 nM assay plates, 10 mM compound stock in DMSO is diluted into plate maps of 5 mM and 50 μM assay stocks, respectively. […] Plates were parafilmed during growth to limit the amount of evaporation that can occur. Plates were numbered, and numerically ordered to ensure they got the same shaker space.
The shakers are kept at a constant shaking of 150 rpm. Ambient temperature is 22±3° C.

[5] = system: Nannochloropsis oculata; test: 500 mL batch culture: growth, dry weight and lipid extract (gravimetric); format: cell-based
Protocol: Batch cultures were grown in 500 mL Pyrex media bottles with stirring and air bubbling (homemade manifold with Petco air pump, 2-4% CO2). Incoming air was sterile filtered by Polyvent 4 disposable filters (Whatman, Kent, UK). […] To minimize bacterial contamination, all equipment and materials were autoclaved and media was added to flask in a Purifier Vertical Clean bench (Labconco, Kansas City, Mo.). […] The amount of DMSO is standardized for all experiments to 0.4%.
For all compound cultures, the 2 mL DMSO stock solution was added to media (without algae) first and mixed well. Control cultures were grown without DMSO. DMSO controls consisted of 0.04-1.0% DMSO. After the addition of algae and media, the container was plugged with a bug stopper vented closure cap and mixed thoroughly. Absorbance is measured immediately for Day 0 analysis. Afterward, absorbance was measured every 1-2 days with a cuvette (1 mL volume) on the Thermo Scientific Genesys 10S V is Spectrophotometer (ThermoFisher, San Jose) at 680 nm.
Batch cultures were also repeated in triplicate and compared to a control culture grown at the same time. Algae were harvested and lipids were extracted for gravimetric analysis.
The nonpolar algal extracts were harvested from 500 mL cultures when indicated on growth curves, a minimum of 3 days into stationary phase.
Cell density was monitored by measuring absorbance at 680 nm every 1-2 days.
500-mL cultures were harvested 6 days into stationary phase based on absorbance values. Cells were concentrated by centrifugation and lyophilization to remove water. Nonpolar lipids were extracted by sonication and solvent (chloroform-methanol and PBS buffer). […] Changes in lipid levels for batch cultures were determined by crude lipid extract mass.

[6] = system: Nannochloropsis salina
[7] = Nannochloris sp., compounds tested at 20 μM, initial screening, p<0.05
[8] = N. oculata, compounds tested at 200 nM, initial screening, p<0.05

SMILES: CNC[C@H](O)c1ccc(O)c(O)c1 [Epinephrine]
- Nile Red Fluorescence % Increase [1]: 44.9%
- Nile Red Fluorescence % Increase [2]: 129.3%

SMILES: OCC(O)CO [Glycerol, propane-1,2,3-triol]
- SFAs (% of total lipids) ([3]; 11 mM, 1H NMR, Normal 24): 39 % of total lipids
- n3 PUFAs (% of UFAs) ([3]; 11 mM, 1H NMR, Normal 37): 16 % of UFAs
- All other PUFAs and MUFAs (% of UFAs) ([3]; 11 mM, 1H NMR, Normal 63): 84 % of UFAs
- UFAs (% of total lipids) ([3]; 11 mM, 1H NMR, Normal 76): 61 % of total lipids
- SFAs (%) ([3]; N. oculata, 1 g/L, n=1, Normal 0 ± 1): 30%
- MUFAs (%) ([3]; N. oculata, 1 g/L, n=1, Normal 4 ± 7): 33%
- n3 PUFAs (%) ([3]; N. oculata, 1 g/L, n=1, Normal 28 ± 4): 10%
- PUFAs (%) ([3]; N. oculata, 1 g/L, n=1, Normal 96 ± 7): 38%

SMILES: O=C(NCCN1CCC(n2c(=O)[nH]c3cc(Cl)ccc32)CC1)c1ccc(F)cc1 [Halopemide, N-[2-[4-(5-Chloro-2,3-dihydro-2-oxo-1H-benzimidazol-1-yl)piperidino]ethyl]-4-fluorobenzamide]
- % change in abs ([4]; P. tricornutum, 10 μM): −31.22%
- % in NR fl ([4]; P. tricornutum, 10 μM): 73.94%
- % change in abs ([2]; N. oculata, 40 μM): −2.02%
- % in NR fl ([2]; N. oculata, 40 μM): 55.13%

SMILES: CC(O)C(=O)O (centres unmarked) [Lactic Acid]
- Nile Red Fluorescence % Increase [1, 7]: 30.9%
- Nile Red Fluorescence % Increase [2, 8]: 128.8%

SMILES: O=C([O-])O.[Na+] [NaHCO3]
- Absorbance at harvest [5]: 2.373 ± 0.217
- Dry weight [5]: 371 ± 117.8
- Extract Weight [5]: 93.5 ± 34.0

SMILES: O=P(O)(O)Oc1ccc2ccccc2c1 [Napthyl acid phosphate, naphthalen-2-yl hydrogen phosphate]
- % Increase based on Nile Red Fluorescence Intensity [4]: 51%
- % Lipid increase based on Nile red fluorescence intensity [4]: 51%
- % increase (lipid production) [4]: 4% and 1-60%
- % increase (lipid production) [2]: 18%

SMILES: O=c1c(O)c(-c2ccc(O)c(O)c2)oc2cc(O)cc(O)c12 [Quercitin]
- % Inc ([2]; increase of lipid production, N. oculata, best conc. 2.5 μM): 67.10%

SMILES: c1ccc2ncncc2c1 [Quinazoline, Benzopyrimidine]
- % increase (lipid production) ([4]; 4-40 μM (H2O)): 15-26 (H2O) %
- % increase (lipid production) ([6]; […]-40 μM): (none)

SMILES: O=C(NCCCCCCNC(=O)ON=C1CCCCC1)ON=C1CCCCC1 [RHC80267, 1,6-bis(Cyclohexyloximinocarbonylamino)hexane]
- % change in abs [4]: −6.46%
- % in NR fl [4]: 45.19%
- % change in abs [2]: 12.83%
- % in NR fl [2]: 49.41%
- % in NR fl [6]: 71.52% and 68.33%

SMILES: Oc1ccc(/C=C/c2cc(O)cc(O)c2)cc1 [Resveratrol, 5-[(E)-2-(4-hydroxyphenyl)ethenyl]benzene-1,3-diol]
- % Lipid increase based on Nile red fluorescence intensity ([4]; P. tricornutum, 10 nM, DMSO, t=day 0): 61%
- % Increase based on Nile Red Fluorescence Intensity ([4]; P. tricornutum, 10 nM, DMSO delivery, added t=day 0): 61%
- Nile Red Fluorescence % Increase [1, 7]: 53.3%
- Nile Red Fluorescence % Increase [2, 8]: 120.4%
- % Inc ([6]; increase of lipid production, N. salina, best conc. 10 nM): 272.72%

SMILES: C/C(=C\CNc1ncnc2nc[nH]c12)CO [Zeatin, (E)-2-methyl-4-(7H-purin-6-ylamino)but-2-en-1-ol]
- % Increase based on Nile Red Fluorescence Intensity [4]: 114%
- % Lipid increase based on Nile red fluorescence intensity [4]: 114%
- Nile Red Fluorescence % Increase [2]: 157.1%
- % Increase based on Nile Red Fluorescence Intensity [6]: 64% and 50%
- % Lipid increase based on Nile red fluorescence intensity [6]: 64%
